US4975455A, “New heteroarotinoid compounds” (Adir et Cie, priority 1988, dated 1990)
Like-named read-outs stand apart in the source and are kept apart here.

Legend:
[1] = system: L1210 line (mouse leukemic line); assay: Inhibition of growth of L1210 line (tritiated thymidine incorporation, 48 hours); type: cell-based; details: L1210 cells, read-out: IC50 (50% growth inhibition)
Description: The growth of this mouse leukemic line is assessed by the capacity of the cells to incorporate tritiated thymidine. The degree of incorporation is measured 48 hours after the introduction of the test compounds into the culture medium.

[2] = Detection of an excess-vitamin A type toxicity in vivo
Description: (§1) This can be reproduced experimentally in animals.
(§2) The selected treatment protocol is a daily injection for five days, repeated a second time after an interval of two days.

humeri of rat fetuses = assay: Toxicity on the humeri of rat fetuses explanted in vitro (proteoglycan release); type: cell-based; details: 7 days of culture in vitro, in words
Description: EXAMPLE 37: STUDY OF THE TOXICITY ON THE HUMERI OF RAT FETUSES OF GESTATIONAL AGE 21 DAYS
The toxicity of retinoids can be evaluated on humeri of rat fetuses of gestational age 21 days.
The toxicity of retinoids can be evaluated on humeri of rat fetuses explanted in vitro as described by KISTLER.
Retinoid activity results in a release of proteoglycans from the bony substance. This release is assessed after 7 days of culture in vitro by assaying the concentration of proteoglycans in the medium, by the method of WITHEMAN (1973).

[3] = in vivo
Description: as §1, §2

[4] = daily injection for five days, repeated after two days interval

IC50 [1]	SMILES	further results
3.8 µM	CCS(=O)(=O)c1ccc(/C=C(\C)C2=Cc3ccccc3OC2)cc1 [Example 16, ethyl 4-[2-(2H-chromen-3-yl)propenyl]phenyl sulfone]	
3.8 µM	CCNC(=O)c1ccc(/C=C(\C)C2=Cc3ccccc3OC2)cc1 [Example 13, N-ethyl-4-[2-(2H-chromen-3-yl)propenyl]benzamide]	
20 µM	CC(=Cc1ccccc1)C1=Cc2cc(Cl)cc(C)c2OC1 [Example 3]	
18 µM	CCOC(=O)c1ccc(/C=C(\C)C2=Cc3ccccc3OC2)cc1 [Example 10, ethyl 4-[2-(2H-chromen-3-yl)propenyl]benzoate]	
7.5 µM	CCS(=O)(=O)c1ccc(C=C(C)C2=Cc3cc(Cl)cc(C)c3OC2)cc1 [Example 17]	
< 1 µM	CC(=Cc1ccccc1)C1=Cc2ccccc2OC1 [Example 1, 3-(1-PHENYLPROPEN-2-YL)-2H-CHROMENE]	
25 µM	COC(=O)c1ccc(/C=C(\C)C2=Cc3cc(Cl)cc(Cl)c3OC2)cc1 [Example 8]	toxicity on the humeri (humeri of rat fetuses): complete absence of toxicity
25 µM	COC(=O)c1ccc(/C=C(\C)C2=Cc3ccccc3OC2)cc1 [Example 6, methyl 4-[2-(2H-chromen-3-yl)propenyl]benzoate]	
	CC1=C(/C=C/C(C)=C/C=C/C(C)=C/C(=O)O)C(C)(C)CCC1 [retinoic acid]	alopecia [3]: appearance of alopecia; weight [3]: rapid weight loss
6 µM	CCS(=O)(=O)c1ccc(C=C(C)C2=Cc3cc(C)cc(C)c3OC2)cc1 [Example 18]	
8 µM	CCS(=O)(=O)c1ccc(/C=C(\C)C2=Cc3cc(OC)ccc3OC2)cc1 [Example 24, ethyl 4-[2-(6-methoxy-2H-chromen-3-yl)propenyl]phenyl sulfone]	

SMILES	IC50 [1]	further results
CCOC(=O)/C=C(C)/C=C/C=C(C)/C=C/c1c(C)cc(OC)c(C)c1C [Etretinate, etretinate]	80 µM	alopecia [2, 4]: appearance of alopecia; fracture / bone weakening (radiography) [2, 4]: bone weakening; weight [2, 4]: rapid weight loss; excess-vitamin A type toxicity ([2]; overall, in words): rapid weight loss, alopecia and bone weakening
